The target in one assay is T1, COX-2 (Homo sapiens, UniProt P35354).
T1 construct: gene PTGS2
T1 sequence (P35354 18-604): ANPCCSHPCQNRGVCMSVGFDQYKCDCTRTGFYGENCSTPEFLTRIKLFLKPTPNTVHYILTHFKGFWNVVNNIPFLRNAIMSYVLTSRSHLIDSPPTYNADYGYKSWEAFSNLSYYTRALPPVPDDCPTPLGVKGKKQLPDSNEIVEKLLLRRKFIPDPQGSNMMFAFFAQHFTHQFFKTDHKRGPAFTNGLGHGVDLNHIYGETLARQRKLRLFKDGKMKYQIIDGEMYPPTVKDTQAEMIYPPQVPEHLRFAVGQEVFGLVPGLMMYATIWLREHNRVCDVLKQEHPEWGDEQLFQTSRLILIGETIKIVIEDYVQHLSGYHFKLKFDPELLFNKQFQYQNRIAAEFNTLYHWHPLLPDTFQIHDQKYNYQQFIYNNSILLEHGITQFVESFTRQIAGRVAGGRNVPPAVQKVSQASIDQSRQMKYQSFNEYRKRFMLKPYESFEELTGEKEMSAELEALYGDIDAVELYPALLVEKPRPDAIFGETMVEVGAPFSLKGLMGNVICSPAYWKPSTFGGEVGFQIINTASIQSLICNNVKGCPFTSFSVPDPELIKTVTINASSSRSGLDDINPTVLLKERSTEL
The assay can be described thus: Cayman COX Fluorescent Inhibitor Screening Assay Kit. The class given is biochemical.

The target in another assay is T2, COX-1 (Ovis aries, UniProt P05979).
T2 construct: gene PTGS1
T2 sequence (P05979 25-600): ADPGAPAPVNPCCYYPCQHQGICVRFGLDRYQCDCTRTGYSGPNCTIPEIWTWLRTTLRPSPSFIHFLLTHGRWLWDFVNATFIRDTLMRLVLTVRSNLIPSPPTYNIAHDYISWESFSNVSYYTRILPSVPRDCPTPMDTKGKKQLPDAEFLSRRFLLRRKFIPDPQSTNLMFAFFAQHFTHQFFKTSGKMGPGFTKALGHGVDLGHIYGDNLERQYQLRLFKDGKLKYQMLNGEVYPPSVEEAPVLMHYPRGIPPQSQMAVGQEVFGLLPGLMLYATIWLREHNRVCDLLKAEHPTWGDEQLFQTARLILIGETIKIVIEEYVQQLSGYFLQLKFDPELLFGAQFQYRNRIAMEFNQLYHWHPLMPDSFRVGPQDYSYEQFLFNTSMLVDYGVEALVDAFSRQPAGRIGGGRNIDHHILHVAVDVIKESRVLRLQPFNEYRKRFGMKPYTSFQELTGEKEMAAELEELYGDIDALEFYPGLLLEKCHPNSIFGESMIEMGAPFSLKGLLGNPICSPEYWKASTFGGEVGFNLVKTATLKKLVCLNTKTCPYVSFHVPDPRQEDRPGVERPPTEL
The assay is described as above. Type of assay: biochemical.

One may read the IC50 as the concentration needed to halve the response being measured. Read a high IC50 as a need for much substance.

Regarding `CC(=O)N/C=C/c1ccc2c(c1)O[C@H](c1ccc(O)c(O)c1)[C@H](NC(C)=O)O2` (racemic) [compound 4, cis-2-(3′,4′-dihydroxyphenyl)-3-acetylamino-7-(N-acetyl-2″-amino-ethylene)-1,4-benzodioxane], the IC50 on COX-2 was determined as 6.43 µM; at COX-1, 78.8 µM.

Source of the values: PMC6331819, “Identification of N-Acetyldopamine Dimers from the Dung Beetle Catharsius molossus and Their COX-1 and COX-2 Inhibitory Activities” (Molecules, 2015).
